Experimental data as given in patent US20220408756A1, “POULTRY FEED AND DRINKING WATER COMPOSITION COMPRISING MONOMETHYLSILANETRIOL” (RXW Group nv, priority 2019, published 2022).

Key:
broiler chicken [1] = assay: Femur head necrosis and tibia dyschondroplasy scores; type: in vivo; set-up: Femur head necrosis score (mean): scale not given here; conditions: D41; for Tibia dyschondroplasy score (mean) / Tibia dyschondroplasy, number of birds with score 0 / Tibia dyschondroplasy, number of birds with score 1 / Tibia dyschondroplasy, number of birds with score 2: unilateral, scale 0 to 2
Procedure: (§1) A study was conducted to investigate the effect of silicium supplementation in drinking water of broiler chicken on their performance, locomotive system, skin healing and bone formation. Silicium was supplemented in 2 treatment groups. A third group was used as control and not treated with silicium. Silicium-monomethylsilanetriol (Si-MMST) was administrated at 2 different concentrations. More specific, Si-MMST was added to drinking water at 0.3 mg/l and 1.48 mg/l. These refer to the final silicium concentrations as measured by ICP-AES. Birds were moreover reared on humidified bedding material to simulate bad housing conditions and induce mild locomotive and skin complications. During the study, performance was assessed by weighing birds and monitoring feed intake on specific time points, separating the study in a starter, grower and finisher period. Additionally, mobility of the birds was assessed at the end of the grower (D33) and finisher period (D41) by means of gait scoring (Kestin et al., 1992). At the end of the trial (D41), footpad and chest lesions, femur head necrosis and tibia dyschondroplasy were assessed by qualified veterinarians, which also isolated 1 tibia per bird for bone strength and composition analysis. The main results of this study are summarizes in table 1.
As 1 of the 2 tibia needs to be isolated unimpaired, tibia dyschondroplasy could only be scored unilateral. Therefore the tibia dyschondroplasy scoring ranges from 0 to 2 instead of 0 to 5.
On D41, all birds were scored for femur head necrosis and tibia dyschondroplasy as described in table 8. No significant differences could be observed between the UC and silicium treated groups based on femur head necrosis and tibia dyschondroplasy.

broiler chicken [2] = assay: Animal body weight and daily weight gain, broiler study with silicium in drinking water; type: in vivo; conditions: for BW D0 (LSM): day 0; for BW D14 (LSM): day 14; for BW D33 (LSM): day 33
Procedure: as §1, with “More specific, Si-MMST was added to drinking water at 0.3 mg/l and 1.48 mg/l.” left out
Average daily weight gain (DWG) for example in starter period (D0-D14) was calculated, using following formula: […]
Similar formula was used to calculate the DWG for all the experimental periods. Table 2 and 3 respectively show the body weight (BW) and daily weight gain (DWG) for the different time points or experimental periods.

broiler chicken [3] = assay: Feed consumption and feed conversion; type: in vivo
Procedure: as §1
The total feed weight was measured per pen when switching between feed compositions. The feed weight (“Feed IN”) was measured and recorded on D0, D14, D33 and D41. Two pens during grower period and all pens during finisher period were supplemented with extra feed to enable at libitum feeding. This extra feed was also weighed and recorded as “Feed IN”. The remaining feed in each pen (“Feed OUT”) was weighed and recorded on D14, D33 and D41. The feed intake (=difference in feed weight at beginning and the end of the experimental period) was calculated for each group per study period. The average daily feed intake (DFI) was calculated for the experimental period using the feed intake data by using following formula: […]
The Feed Conversion Ratio (FCR) was calculated for each of the above mentioned study periods, using following formula: […]

broiler chicken [4] = assay: Gait scoring (Kestin et al., 1992); type: in vivo; conditions: day 33
Procedure: as §1, with “The main results of this study are summarizes in table 1.” left out
On D33 and D41, mobility of the birds was evaluated individually by using the gait scoring chart as described by Kestin et al., 1992. […]

broiler chicken [5] = assay: Bone composition measurements (tibia); type: in vivo; conditions: for Bone ash / Bone calcium content / Bone copper content / Bone dry matter / Bone phosphorus content / Bone zinc content: D41; for Bone manganese content: D41, values below detection limit (<5) set to 2.5
Procedure: as §1
(§2) On D41, one tibia of each bird was collected for analysis. Initially, we selected 2 birds in each pen (first 2 numbers/pen) to obtain 50 samples for analysis of bone weight, fracture force (N), maximum force (N), stiffness (N/mm), bone dry matter (%), bone ash (%), phosphorus content (%), calcium content (%), copper content (mg/kg), manganese content (mg/kg) and zinc content (mg/kg). The results of bone strength measurement per treatment group are presented in table 9 and analysis on bone composition is represented in table 10.

broiler chicken [6] = assay: Bone strength measurement (tibia); type: in vivo; conditions: D41
Procedure: as §1, §2

Stability in water = type: physicochemical
Procedure: This organosilicon compound is highly bioavailable. […] MMST can advantageously be used without stabilizers in silicon equivalent concentrations up to 300 mg/l. The stability of MMST is dependent on concentration and declines at higher concentrations. The stability can be enhanced by the use of stabilizing agents.

broiler chicken [7] = assay: Footpad and chest lesion scores; type: in vivo; set-up: Footpad lesion score (mean) / Chest lesion score (mean): scale not given here; conditions: D41
Procedure: as §1
More specific, the average footpad lesion score decreased from 1.31 in the UC to 0.9 in the 0.3 mg/l Si-MMS treatment group.

[8] = 0.3 mg/l Si-MMST in drinking water
[9] = 1.48 mg/l Si-MMST in drinking water

C[Si](O)(O)O [Si-MMST, monomethylsilanetriol]
Femur head necrosis score (mean) (broiler chicken [1]; [8]): 1.29 | Femur head necrosis, number of birds with score 0 (broiler chicken [1]; [8]): 10 | Femur head necrosis, number of birds with score 1 (broiler chicken [1]; [8]): 15 | Femur head necrosis, number of birds with score 2 (broiler chicken [1]; [8]): 24 | Femur head necrosis, number of birds with score 3 (broiler chicken [1]; [8]): 0 | Femur head necrosis, number of birds with score 5 (broiler chicken [1]; [8]): 0 | Tibia dyschondroplasy score (mean) (broiler chicken [1]; [8]): 0.10 | Tibia dyschondroplasy, number of birds with score 0 (broiler chicken [1]; [8]): 44 | Tibia dyschondroplasy, number of birds with score 1 (broiler chicken [1]; [8]): 5 | Tibia dyschondroplasy, number of birds with score 2 (broiler chicken [1]; [8]): 0 | Femur head necrosis score (mean) (broiler chicken [1]; [9]): 1.2 | Femur head necrosis, number of birds with score 0 (broiler chicken [1]; [9]): 15 | Femur head necrosis, number of birds with score 1 (broiler chicken [1]; [9]): 7 | Femur head necrosis, number of birds with score 2 (broiler chicken [1]; [9]): 22 | Femur head necrosis, number of birds with score 3 (broiler chicken [1]; [9]): 1 | Femur head necrosis, number of birds with score 5 (broiler chicken [1]; [9]): 0 | Tibia dyschondroplasy score (mean) (broiler chicken [1]; [9]): 0.09 | Tibia dyschondroplasy, number of birds with score 0 (broiler chicken [1]; [9]): 41 | Tibia dyschondroplasy, number of birds with score 1 (broiler chicken [1]; [9]): 4 | Tibia dyschondroplasy, number of birds with score 2 (broiler chicken [1]; [9]): 0 | BW D0 (LSM) (broiler chicken [2]; 0.3 mg/l Si-MMST in drinking water (Si-MMST 1)): 48 g | DWG D0-14 (LSM) (broiler chicken [2]; [8]): 25.6 g | DWG D0-41 (LSM) (broiler chicken [2]; 0.3 mg/l Si-MMST in drinking water, D0-41): 63.1 g | DWG D14-33 (LSM) (broiler chicken [2]; [8]): 70.6 g | DWG D33-41 (LSM) (broiler chicken [2]; [8]): 111.1 g | BW D14 (LSM) (broiler chicken [2]; [8]): 407 g | BW D33 (LSM) (broiler chicken [2]; [8]): 1748 g | BW D41 (LSM) (broiler chicken [2]; 0.3 mg/l Si-MMST in drinking water, day 41): 2636 g | DWG over the complete study period (D0-D41) versus control (broiler chicken [2]; 1.433 mg/l Si-MMST in drinking water, D0-D41): significantly increased | body weight on day 41 versus control (broiler chicken [2]; 1.433 mg/l Si-MMST in drinking water, day 41): significantly increased | BW D0 (LSM) (broiler chicken [2]; 1.48 mg/l Si-MMST in drinking water (Si-MMST 2)): 48 g | DWG D0-14 (LSM) (broiler chicken [2]; [9]): 25.8 g | DWG D14-33 (LSM) (broiler chicken [2]; [9]): 77.6 g | DWG D33-41 (LSM) (broiler chicken [2]; [9]): 111.1 g | BW D14 (LSM) (broiler chicken [2]; [9]): 410 g | BW D33 (LSM) (broiler chicken [2]; [9]): 1883 g | BW on day 41 (broiler chicken [2]; 1.48 mg/l Si-MMST in drinking water, day 41, UC 2.622 kg): 2.775 kg | DFI D0-14 (mean) (broiler chicken [3]; [8]): 24.9 g | FCR D0-14 (mean) (broiler chicken [3]; [8]): 1.0 | DFI D0-41 (mean) (broiler chicken [3]; [8]): 117.4 g | FCR D0-41 (mean) (broiler chicken [3]; [8]): 1.9 | DFI D14-33 (mean) (broiler chicken [3]; [8]): 141.2 g | FCR D14-33 (mean) (broiler chicken [3]; [8]): 2.0 | DFI D33-41 (mean) (broiler chicken [3]; [8]): 207.0 g | FCR D33-41 (mean) (broiler chicken [3]; [8]): 1.9 | DFI D0-14 (mean) (broiler chicken [3]; [9]): 25.0 g | FCR D0-14 (mean) (broiler chicken [3]; [9]): 1.0 | DFI D0-41 (mean) (broiler chicken [3]; [9]): 114.4 g | FCR D0-41 (mean) (broiler chicken [3]; [9]): 1.8 | DFI D14-33 (mean) (broiler chicken [3]; [9]): 132.7 g | FCR D14-33 (mean) (broiler chicken [3]; [9]): 1.7 | DFI D33-41 (mean) (broiler chicken [3]; [9]): 218.5 g | FCR D33-41 (mean) (broiler chicken [3]; [9]): 2.1 | daily feed intake versus control (broiler chicken [3]; MMST supplemented treatment groups, all study periods and D0-D41): higher than the control | Gait score D33 (mean) (broiler chicken [4]; [8]): 0.26 | Gait score D33 (mean) (broiler chicken [4]; [9]): 0.27 | Bone ash (broiler chicken [5]; [8]): 22.6% | Bone calcium content (broiler chicken [5]; [8]): 35.3% | Bone copper content (broiler chicken [5]; [8]): 3.3 mg/kg | Bone dry matter (broiler chicken [5]; [8]): 49.0% | Bone phosphorus content (broiler chicken [5]; [8]): 17.8% | Bone zinc content (broiler chicken [5]; [8]): 326.9 mg/kg | Bone manganese content (broiler chicken [5]; [8]): 7.4 mg/kg | Bone ash (broiler chicken [5]; [9]): 22.9% | Bone calcium content (broiler chicken [5]; [9]): 35.1% | Bone copper content (broiler chicken [5]; [9]): 3.2 mg/kg | Bone dry matter (broiler chicken [5]; [9]): 49.1% | Bone phosphorus content (broiler chicken [5]; [9]): 17.6% | Bone zinc content (broiler chicken [5]; [9]): 340.3 mg/kg | Bone manganese content (broiler chicken [5]; [9]): 8.2 mg/kg | Bone weight (mean) (broiler chicken [6]; [8]): 12.3 g | Fracture force (mean) (broiler chicken [6]; [8]): 360.7 N | Maximum force (mean) (broiler chicken [6]; [8]): 372.5 N | Stiffness (mean) (broiler chicken [6]; [8]): 148.8 N/mm | Bone weight (mean) (broiler chicken [6]; [9]): 13.2 g | Fracture force (mean) (broiler chicken [6]; [9]): 400.6 N | Maximum force (mean) (broiler chicken [6]; [9]): 409.6 N | Stiffness (mean) (broiler chicken [6]; [9]): 164.3 N/mm | silicon equivalent concentration usable without stabilizers (Stability in water; in water, without stabilizers): up to 300 mg/l | stability in water (Stability in water; low concentrations): sufficiently stable | Chest lesion score (mean) (broiler chicken [7]; [8]): 0.02 | Chest lesion, number of birds with score 0 (broiler chicken [7]; [8]): 48 | Chest lesion, number of birds with score 1 (broiler chicken [7]; [8]): 1 | Footpad lesion score (mean) (broiler chicken [7]; [8]): 0.9 | Footpad lesion, number of birds with score 0 (broiler chicken [7]; [8]): 19 | Footpad lesion, number of birds with score 1 (broiler chicken [7]; [8]): 16 | Footpad lesion, number of birds with score 2 (broiler chicken [7]; [8]): 14 | Chest lesion score (mean) (broiler chicken [7]; [9]): 0.00 | Chest lesion, number of birds with score 0 (broiler chicken [7]; [9]): 45 | Chest lesion, number of birds with score 1 (broiler chicken [7]; [9]): 0 | Footpad lesion score (mean) (broiler chicken [7]; [9]): 1.04 | Footpad lesion, number of birds with score 0 (broiler chicken [7]; [9]): 8 | Footpad lesion, number of birds with score 1 (broiler chicken [7]; [9]): 27 | Footpad lesion, number of birds with score 2 (broiler chicken [7]; [9]): 10
